Here are results for 2 compounds from patent US11040976B2, “Substrate selective inhibitors of insulin-degrading enzyme (IDE) and uses thereof” (President and Fellows of Harvard College, priority 2015, dated 2021).

Each structure is given as a SMILES string.

Test [1] has as its target T1, recombinant human IDE42-1019 (Homo sapiens, UniProt P14735).
T1 construct: recombinant human IDE42-1019 (R&D Systems); purchased R&D Systems
T1 sequence (P14735 42-1019): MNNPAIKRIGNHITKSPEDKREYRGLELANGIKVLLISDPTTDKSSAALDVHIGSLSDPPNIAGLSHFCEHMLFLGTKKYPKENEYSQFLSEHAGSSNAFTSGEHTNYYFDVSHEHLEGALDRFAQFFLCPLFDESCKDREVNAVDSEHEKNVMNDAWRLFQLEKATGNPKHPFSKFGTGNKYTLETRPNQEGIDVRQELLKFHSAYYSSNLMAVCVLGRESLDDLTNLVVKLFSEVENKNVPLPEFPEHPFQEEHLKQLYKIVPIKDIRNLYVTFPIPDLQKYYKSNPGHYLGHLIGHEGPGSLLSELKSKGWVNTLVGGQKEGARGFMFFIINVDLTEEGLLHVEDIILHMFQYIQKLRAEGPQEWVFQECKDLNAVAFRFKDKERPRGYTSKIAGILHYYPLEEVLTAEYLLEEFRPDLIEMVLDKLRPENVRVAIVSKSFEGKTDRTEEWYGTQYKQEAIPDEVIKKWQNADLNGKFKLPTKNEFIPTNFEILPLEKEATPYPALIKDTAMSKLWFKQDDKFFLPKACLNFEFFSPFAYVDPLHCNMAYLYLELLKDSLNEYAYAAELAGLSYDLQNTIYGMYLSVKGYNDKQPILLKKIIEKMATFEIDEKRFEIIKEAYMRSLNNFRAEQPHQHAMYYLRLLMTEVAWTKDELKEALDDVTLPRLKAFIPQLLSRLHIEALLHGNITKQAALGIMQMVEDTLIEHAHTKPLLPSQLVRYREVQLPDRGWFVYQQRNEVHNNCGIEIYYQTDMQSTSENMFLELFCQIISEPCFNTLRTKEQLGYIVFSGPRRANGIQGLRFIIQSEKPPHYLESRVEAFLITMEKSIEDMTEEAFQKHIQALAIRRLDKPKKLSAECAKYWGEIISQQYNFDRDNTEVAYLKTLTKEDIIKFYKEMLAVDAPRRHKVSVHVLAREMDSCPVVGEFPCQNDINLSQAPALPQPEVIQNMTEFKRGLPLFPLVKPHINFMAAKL
The test can be described thus: Protease assay with fluorogenic peptide substrate Mca-[…](Dnp)-OH. The class given is biochemical. As to conditions: fluorogenic peptide Mca-RPPGFSAFK(Dnp)-OH; apparent IC50 for compounds with submaximal inhibition; read-out: IC50 (μM) Proteolysis.

In a further test the target is T2, IDE, substrate glucagon (Homo sapiens, UniProt P14735).
T2 sequence (P14735 1-1019): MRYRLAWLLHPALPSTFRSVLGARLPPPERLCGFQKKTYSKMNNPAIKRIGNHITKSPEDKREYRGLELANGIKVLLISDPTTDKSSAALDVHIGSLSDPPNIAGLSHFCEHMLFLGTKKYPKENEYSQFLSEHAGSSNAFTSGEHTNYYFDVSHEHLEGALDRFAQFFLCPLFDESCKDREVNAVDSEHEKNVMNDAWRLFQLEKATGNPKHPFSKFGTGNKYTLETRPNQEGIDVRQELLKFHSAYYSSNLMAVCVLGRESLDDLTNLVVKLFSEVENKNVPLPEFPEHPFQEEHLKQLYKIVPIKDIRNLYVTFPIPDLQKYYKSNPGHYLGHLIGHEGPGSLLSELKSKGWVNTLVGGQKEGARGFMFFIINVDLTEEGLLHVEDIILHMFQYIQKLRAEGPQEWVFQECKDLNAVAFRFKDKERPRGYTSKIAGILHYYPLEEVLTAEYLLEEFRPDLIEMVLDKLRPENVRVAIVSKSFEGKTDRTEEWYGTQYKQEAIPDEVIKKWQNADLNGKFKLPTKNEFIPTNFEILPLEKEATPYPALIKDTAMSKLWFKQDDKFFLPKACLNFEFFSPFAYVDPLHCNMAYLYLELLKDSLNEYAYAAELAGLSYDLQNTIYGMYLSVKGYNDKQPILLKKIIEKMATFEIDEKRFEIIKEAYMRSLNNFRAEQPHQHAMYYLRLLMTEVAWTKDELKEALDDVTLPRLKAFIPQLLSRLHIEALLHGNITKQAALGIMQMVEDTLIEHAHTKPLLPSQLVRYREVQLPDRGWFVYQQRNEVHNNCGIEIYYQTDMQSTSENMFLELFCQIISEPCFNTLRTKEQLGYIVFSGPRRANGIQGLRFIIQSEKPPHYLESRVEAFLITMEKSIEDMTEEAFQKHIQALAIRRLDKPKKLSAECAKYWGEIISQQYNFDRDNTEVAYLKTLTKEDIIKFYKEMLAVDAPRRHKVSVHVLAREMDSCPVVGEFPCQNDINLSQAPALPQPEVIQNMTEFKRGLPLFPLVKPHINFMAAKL
The test is described as follows: MALDI analysis of glucagon cleavage products (FIGS. 27-32). The class given is biochemical. The conditions noted are these: FIG. 27A.

For `Cc1cccc(-c2ccc([C@@H]3[C@@H](CO)N4CCCCN(S(=O)(=O)c5ccccc5C(F)(F)F)C[C@@H]34)cc2)c1C` [JP-17], the IC50 (as a rule, the concentration that gives 50% inhibition) in test [1] stood at 0.001 µM. Besides, the “main glucagon cleavage site” value at IDE, substrate glucagon is recorded as “no change in the main glucagon cleavage site”.
Regarding `Cc1cccc(-c2ccc([C@H]3C4CN(S(=O)(=O)c5ccccc5C(F)(F)F)CCCCN4[C@@H]3CF)cc2)c1C` (stereo partly drawn) [JP-18], the “main glucagon cleavage site” value at IDE, substrate glucagon is reported as “no change in the main glucagon cleavage site”.
